Numbered stars: 1 amine (or outer) side, 2 acyl side, 3 side chain; on linkers, the order of the positions; unused ones are H or OH. Square brackets hold non-standard residues; d marks the D form. Side chains are listed from the residue outwards. Peptide text beside a SMILES is read from it. * marks the point of attachment. γGlu = O=C(O)[C@H](CCC(=O)[*:2])N[*:1]; Palmitoyl = CCCCCCCCCCCCCCCC(=O)*; Aib = CC(C)(N)C(=O)O
molecular target: T1, human glucagon receptor (Homo sapiens, UniProt P47871); assay: cAMP response (HTRF) of HEK-293 cells stably expressing human glucagon receptor; assay type: cell-based; conditions: Table 8; read-out: EC50 hGlucagon R
T1 construct: expressed in transfected cells; host or cells: HEK-293
T1 sequence (P47871 26-477): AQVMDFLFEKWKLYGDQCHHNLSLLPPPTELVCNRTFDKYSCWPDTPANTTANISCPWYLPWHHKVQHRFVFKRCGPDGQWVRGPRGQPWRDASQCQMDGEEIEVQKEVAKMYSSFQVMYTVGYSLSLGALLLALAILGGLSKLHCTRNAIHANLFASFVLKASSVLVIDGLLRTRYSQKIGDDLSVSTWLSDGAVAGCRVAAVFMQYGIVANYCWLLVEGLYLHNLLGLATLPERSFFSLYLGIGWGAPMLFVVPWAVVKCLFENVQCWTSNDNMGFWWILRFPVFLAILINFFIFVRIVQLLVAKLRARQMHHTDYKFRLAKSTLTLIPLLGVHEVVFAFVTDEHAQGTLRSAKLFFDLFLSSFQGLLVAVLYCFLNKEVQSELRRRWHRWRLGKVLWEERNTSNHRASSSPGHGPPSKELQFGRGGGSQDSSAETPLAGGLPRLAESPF
Experimental: cAMP content of cells was determined using a kit from Cisbio Corp. (cat. no. 62AM4PEJ) based on HTRF (Homogenous Time Resolved Fluorescence). For preparation, cells were split into T175 culture flasks and grown overnight to near confluency in medium (DMEM/10% FBS). Medium was then removed and cells washed with PBS lacking calcium and magnesium, followed by proteinase treatment with accutase (Sigma-Aldrich cat. no. A6964). Detached cells were washed and resuspended in assay buffer (1×HBSS; 20 mM HEPES, 0.1% BSA, 2 mM IBMX) and cellular density determined. They were then diluted to 400000 cells/ml and 25 μl-aliquots dispensed into the wells of 96-well plates. For measurement, 25 μl of test compound in assay buffer was added to the wells, followed by incubation for 30 minutes at room temperature.
Potencies of peptidic compounds at the GLP-1, glucagon and GIP receptors were determined by exposing cells expressing human glucagon receptor (hGlucagon R), human GIP receptor (hGIP-R) or human GLP-1 receptor (hGLP-1 R) to the listed compounds at increasing concentrations and measuring the formed cAMP as described in Methods.

Row | EC50 | Structure (SMILES)
1 | 2 pM | CCCCCCCCCCCCCCCC(=O)N[C@@H](CCC(=O)N[C@@H](CCC(=O)NCCCC[C@H](NC(=O)[C@H](CC(C)C)NC(=O)[C@H](CCCCN)NC(=O)[C@H](CO)NC(=O)[C@H](CC(C)C)NC(=O)[C@H](CC(=O)O)NC(=O)[C@H](CO)NC(=O)[C@@H](NC(=O)[C@H](Cc1ccccc1)NC(=O)[C@@H](NC(=O)CNC(=O)[C@H](Cc1c[nH]cn1)NC(=O)C(C)(C)NC(=O)[C@@H](N)Cc1c[nH]cn1)[C@@H](C)O)[C@@H](C)O)C(=O)N[C@@H](CCC(=O)O)C(=O)N[C@@H](CCC(=O)O)C(=O)N[C@@H](CCC(N)=O)C(=O)N[C@@H](CCCNC(=N)N)C(=O)N[C@@H](CCC(N)=O)C(=O)N[C@@H](CCCCN)C(=O)N[C@@H](CCC(=O)O)C(=O)N[C@@H](Cc1ccccc1)C(=O)N[C@H](C(=O)N[C@@H](CCC(=O)O)C(=O)N[C@@H](Cc1c[nH]c2ccccc12)C(=O)N[C@@H](CC(C)C)C(=O)N[C@@H](CCCCN)C(=O)N[C@@H](C)C(=O)NCC(=O)NCC(=O)N1CCC[C@H]1C(=O)N1CCC[C@H]1C(=O)N[C@@H](CO)C(=O)NC(C)(C)C(=O)N[C@@H](CCCCN)C(=O)N1CCC[C@H]1C(=O)N1CCC[C@H]1C(=O)N1CCC[C@H]1C(=O)N[C@@H](CCCCN)C(N)=O)[C@@H](C)CC)C(=O)O)C(=O)O [SEQ ID NO: 8, H-Aib-H-G-T-F-T-S-D-L-S-K-L-K[gGlu-gGlu-Palm]-E-E-Q-R-Q-K-E-F-I-E-W-L-K-A-G-G-P-P-S-Aib-K-P-P-P-K-NH2]
2 | 2 pM | CCCCCCCCCCCCCCCC(=O)N[C@@H](CCC(=O)N[C@@H](CCC(=O)NCCCC[C@H](NC(=O)[C@H](CC(C)C)NC(=O)[C@H](CCCCN)NC(=O)[C@H](CO)NC(=O)[C@H](CC(C)C)NC(=O)[C@H](CC(=O)O)NC(=O)[C@H](CO)NC(=O)[C@@H](NC(=O)[C@H](Cc1ccccc1)NC(=O)[C@@H](NC(=O)CNC(=O)[C@H](Cc1c[nH]cn1)NC(=O)C(C)(C)NC(=O)[C@@H](N)Cc1c[nH]cn1)[C@@H](C)O)[C@@H](C)O)C(=O)N[C@@H](CCC(=O)O)C(=O)N[C@@H](CCC(=O)O)C(=O)N[C@@H](CCC(N)=O)C(=O)N[C@@H](CCCNC(=N)N)C(=O)N[C@@H](CCC(N)=O)C(=O)NC(C)(C)C(=O)N[C@@H](CCC(=O)O)C(=O)N[C@@H](Cc1ccccc1)C(=O)N[C@H](C(=O)N[C@@H](CCC(=O)O)C(=O)N[C@@H](Cc1c[nH]c2ccccc12)C(=O)N[C@@H](CC(C)C)C(=O)N[C@@H](CCCCN)C(=O)N[C@@H](C)C(=O)NCC(=O)NCC(=O)N[C@@H](Cc1c[nH]cn1)C(=O)N1CCC[C@H]1C(=O)N[C@@H](CO)C(=O)NC(C)(C)C(=O)N[C@@H](CCCCN)C(=O)N1CCC[C@H]1C(=O)N1CCC[C@H]1C(=O)N1CCC[C@H]1C(=O)N[C@@H](CCCCN)C(N)=O)[C@@H](C)CC)C(=O)O)C(=O)O [SEQ ID NO: 12, H-Aib-H-G-T-F-T-S-D-L-S-K-L-K[gGlu-gGlu-Palm]-E-E-Q-R-Q-Aib-E-F-I-E-W-L-K-A-G-G-H-P-S-Aib-K-P-P-P-K-NH2]
3 | 2.1 pM | CCCCCCCCCCCCCCCC(=O)N[C@@H](CCC(=O)N[C@@H](CCC(=O)NCCCC[C@H](NC(=O)[C@H](CC(C)C)NC(=O)[C@H](CCCCN)NC(=O)[C@H](CO)NC(=O)[C@H](CC(C)C)NC(=O)[C@H](CC(=O)O)NC(=O)[C@H](CO)NC(=O)[C@@H](NC(=O)[C@H](Cc1ccccc1)NC(=O)[C@@H](NC(=O)CNC(=O)[C@H](Cc1c[nH]cn1)NC(=O)C(C)(C)NC(=O)[C@@H](N)Cc1c[nH]cn1)[C@@H](C)O)[C@@H](C)O)C(=O)N[C@@H](CCC(=O)O)C(=O)N[C@@H](CCC(=O)O)C(=O)N[C@@H](CCC(N)=O)C(=O)N[C@@H](CCCNC(=N)N)C(=O)N[C@@H](CCC(N)=O)C(=O)NC(C)(C)C(=O)N[C@@H](CCC(=O)O)C(=O)N[C@@H](Cc1ccccc1)C(=O)N[C@H](C(=O)N[C@@H](CCC(=O)O)C(=O)N[C@@H](Cc1c[nH]c2ccccc12)C(=O)N[C@@H](CC(C)C)C(=O)N[C@@H](CCCCN)C(=O)N[C@@H](C)C(=O)N[C@H](C)C(=O)NCC(=O)N[C@@H](Cc1c[nH]cn1)C(=O)N1CCC[C@H]1C(=O)N[C@@H](CO)C(=O)NC(C)(C)C(=O)N[C@@H](CCCCN)C(=O)N1CCC[C@H]1C(=O)N1CCC[C@H]1C(=O)N1CCC[C@H]1C(=O)N[C@@H](CCCCN)C(N)=O)[C@@H](C)CC)C(=O)O)C(=O)O [SEQ ID NO: 13, H-Aib-H-G-T-F-T-S-D-L-S-K-L-K[gGlu-gGlu-Palm]-E-E-Q-R-Q-Aib-E-F-I-E-W-L-K-A-dAla-G-H-P-S-Aib-K-P-P-P-K-NH2] (H-H[Aib]HGTFTSDLSKLK([γGlu-γGlu-Palmitoyl])EEQRQ[Aib]EFIEWLKA[dA]GHPS[Aib]KPPPK-NH2)
